Data published in US20260166082A1, “METHODS OF TREATMENT WITH T CELL THERAPY AND IMMUNOMODULATORY AGENT MAINTENANCE THERAPY” (Celgene Corporation, priority 2022, published 2026).

Experiments:
minimal residual disease = test: Example 1: MRD negativity by next-generation sequencing and EuroFlow; type: in vivo, human; details: subjects on lenalidomide maintenance after anti-BCMA CAR-T cells, subsequent analysis
Protocol: Exploratory endpoints, which included assessment of biomarkers (serum level of soluble BCMA (sBCMA) and inflammatory cytokines) by Luminex assay and minimal residual disease negativity (MRD−) by using aggregation of next-generation sequencing and 8-color flow cytometry (EuroFlow; sensitivity <10^−5 nucleated cells) data with interpolation to reduce missing/indeterminate data points. sBCMA levels were evaluated at leukapheresis; baseline; days 1, 4, and 8; and until disease progression. Plasma levels of immune-related inflammatory cytokines (interferon-γ (IFNγ), interleukin-6 (IL-6), interleukin-8 (IL-8) and interleukin-10 (IL-10)) were evaluated at leukapheresis; baseline; days 1-8, 10, 12, 15 18 and 22; and months 2 and 4. Efficacy and safety were analyzed in all subjects who received anti-BCMA CAR-T cells. PK, sBCMA, and MRD-were analyzed in evaluable subjects.

[1] = system: patients with multiple myeloma following ASCT; details: maintenance with lenalidomide following ASCT; 22.1 months follow up; cited from earlier work

In the case of `Nc1cccc2c1CN(C1CCC(=O)NC1=O)C2=O` (centres unmarked) [lenalidomide, 3-(4-amino-1-oxo-1,3-dihydro-2H-isoindol-2-yl) piperidine-2,6-dione], the “MRD-negativity maintained at 36 months” value (minimal residual disease; 2/3 evaluable) is reported as 66.7%, the “MRD-negativity maintained at 12 months” value (minimal residual disease; 4/6 evaluable) is reported as 66.7% and the “MRD-negativity maintained at 24 months” value (minimal residual disease; 4/6 evaluable) is reported as 66.7%. For the same molecule, the complete response rate [1] was 60.9% and the “patients achieving minimal residual disease negativity” value [1] was 20.4.
